The values that follow come from patent US20260256763A1, “Aromatic Amide Derivative, And Preparation Method Therefor And Use Thereof” (Zhejiang Hisun Pharmaceutical Co., Ltd., priority 2023, published 2026).

The IC50 is the concentration that inhibits the measured activity by half.

Test [1] has as its system OVCAR-3 cells. The test is described as follows: Inhibition on OVCAR-3 cell proliferation (CellTiter-Glo). The class given is cell-based. To be noted: Homo sapiens, OVCAR-3 cells (TP53 R248Q mutation), 72 hours. Here is the method:
Influences of the compounds of the present invention on OVCAR-3 cell proliferation were determined by the following method. OVCAR-3 cells (containing TP53 R248Q mutation) were purchased from the Cell Bank of Shanghai Institute of Biochemistry and Cell Biology, Chinese Academy of Sciences, and cultured in an RPMI 1640 culture medium containing […], 100 U penicillin and 100 μg/mL streptomycin. A cell viability was determined by a CellTiter-Glo® Luminescent Cell Viability Assay kit (Promega, article number G7573).
(§1) An experimental method was operated according to steps in the instruction of the kit, which was briefly described as follows: a test compound was dissolved in DMSO first to prepare a 10 mM stock solution, then the stock solution was diluted with the above RPMI 1640 culture medium to prepare a test sample, and a final concentration of the compound was in a range of 1000 nM-0.015 nM. Cells in a logarithmic growth phase were inoculated into a 96-well cell culture plate at a density of 1000 cells per well, cultured in a 5% CO2 incubator at 37° C. overnight, and then the test compound was added to continuously culture for 72 hours. After the culture was ended, 50 μL of CellTiter-Glo detection solution was added to each well, the plates were shaken for 5 minutes, and then allowed to stand for 10 minutes, and subsequently, a luminous value of each well of sample was read by a microplate reader in a Luminescence mode. By comparing with a numerical value of a control group (0.3% DMSO), a percentage inhibition rate of the compound at each concentration was calculated, and then nonlinear regression analysis was carried out based on concentration logarithm-inhibition rate of the compound in GraphPad Prism 5 software, so as to obtain an IC50 value of the compound in inhibition on cell proliferation, which are shown in Table 1.
On the technique in general: In ATP-based viability assays light output follows the ATP content of the culture.

In test [2] the test system is HT-29 cells. Briefly: Inhibition on HT-29 cell proliferation (CellTiter-Glo). The class given is cell-based. To be noted: Homo sapiens, HT-29 cells (TP53 R273H mutation), 120 hours. Here is the method:
Influences of the compounds of the present invention on HT-29 cell proliferation were determined by the following method. HT-29 cells (containing TP53 R273H mutation) were purchased from the Cell Bank of Shanghai Institute of Biochemistry and Cell Biology, Chinese Academy of Sciences, and cultured in a McCOY's 5A culture medium containing 10% fetal bovine serum, 100 U penicillin and 100 μg/mL streptomycin. A cell viability was determined by a CellTiter-Glo® Luminescent Cell Viability Assay kit (Promega, article number G7573).
as §1, with “McCOY's 5A” for “RPMI 1640”, “120” for “72”, “µL” for “μL”, “2.” for “1.”

Test [3] deals with T1, recombinant human KIF18A (Homo sapiens, UniProt Q8NI77).
T1 construct: purchased GenScript
T1 sequence (Q8NI77 whole entry): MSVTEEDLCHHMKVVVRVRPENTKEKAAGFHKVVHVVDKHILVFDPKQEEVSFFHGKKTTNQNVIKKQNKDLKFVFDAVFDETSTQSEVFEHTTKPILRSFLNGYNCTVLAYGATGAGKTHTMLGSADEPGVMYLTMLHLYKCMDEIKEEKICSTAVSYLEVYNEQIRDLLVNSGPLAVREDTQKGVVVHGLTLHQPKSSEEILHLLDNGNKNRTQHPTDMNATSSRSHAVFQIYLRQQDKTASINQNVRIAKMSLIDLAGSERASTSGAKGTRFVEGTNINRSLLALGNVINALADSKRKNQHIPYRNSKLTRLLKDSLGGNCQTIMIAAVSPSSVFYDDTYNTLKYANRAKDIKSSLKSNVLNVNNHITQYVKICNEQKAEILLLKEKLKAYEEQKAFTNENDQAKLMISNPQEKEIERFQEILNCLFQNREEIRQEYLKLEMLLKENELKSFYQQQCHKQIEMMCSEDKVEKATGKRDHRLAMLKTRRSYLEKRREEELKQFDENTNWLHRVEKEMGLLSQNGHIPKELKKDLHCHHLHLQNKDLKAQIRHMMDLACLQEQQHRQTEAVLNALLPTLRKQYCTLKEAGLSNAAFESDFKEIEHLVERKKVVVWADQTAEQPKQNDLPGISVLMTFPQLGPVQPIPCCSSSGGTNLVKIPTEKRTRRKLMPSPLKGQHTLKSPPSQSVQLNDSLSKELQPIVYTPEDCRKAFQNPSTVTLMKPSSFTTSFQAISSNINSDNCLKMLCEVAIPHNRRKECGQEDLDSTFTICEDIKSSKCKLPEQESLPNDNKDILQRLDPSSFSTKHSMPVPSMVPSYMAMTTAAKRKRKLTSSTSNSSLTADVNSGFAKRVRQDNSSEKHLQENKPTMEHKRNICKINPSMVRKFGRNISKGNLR
T1 sequence (P68363 whole entry partner): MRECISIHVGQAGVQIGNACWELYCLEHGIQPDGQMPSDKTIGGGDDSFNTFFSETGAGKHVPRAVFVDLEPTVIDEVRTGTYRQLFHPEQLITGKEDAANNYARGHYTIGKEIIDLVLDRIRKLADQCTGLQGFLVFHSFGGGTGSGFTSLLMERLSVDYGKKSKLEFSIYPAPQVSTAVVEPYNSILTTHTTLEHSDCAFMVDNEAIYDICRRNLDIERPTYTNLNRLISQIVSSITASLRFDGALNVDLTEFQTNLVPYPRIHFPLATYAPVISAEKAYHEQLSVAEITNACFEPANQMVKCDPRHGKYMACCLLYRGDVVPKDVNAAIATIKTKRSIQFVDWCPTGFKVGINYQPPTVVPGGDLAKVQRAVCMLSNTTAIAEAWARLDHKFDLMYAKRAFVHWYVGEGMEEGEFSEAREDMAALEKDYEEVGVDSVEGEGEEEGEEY
T1 sequence (Q9BVA1 whole entry partner): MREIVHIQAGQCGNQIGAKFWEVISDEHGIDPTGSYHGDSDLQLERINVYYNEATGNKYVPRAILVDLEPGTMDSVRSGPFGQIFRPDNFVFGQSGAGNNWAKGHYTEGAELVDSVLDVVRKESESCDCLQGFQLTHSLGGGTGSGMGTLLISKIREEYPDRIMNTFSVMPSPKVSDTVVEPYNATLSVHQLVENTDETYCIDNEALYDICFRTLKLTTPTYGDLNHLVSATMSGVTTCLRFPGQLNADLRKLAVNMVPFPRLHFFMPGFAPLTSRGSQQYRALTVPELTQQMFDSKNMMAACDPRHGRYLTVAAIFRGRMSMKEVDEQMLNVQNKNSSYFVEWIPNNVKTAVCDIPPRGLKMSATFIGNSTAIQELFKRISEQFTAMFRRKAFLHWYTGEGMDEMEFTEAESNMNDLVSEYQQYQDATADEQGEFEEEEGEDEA
Briefly: Inhibition on KIF18A enzyme activity (ADP-Glo). Particulars: recombinant human KIF18A 100 nM, ATP 60 μM. The class given is biochemical. On the procedure: Inhibition degrees of the compounds of the present invention on recombinant human KIF18A enzyme activity in vitro were determined by the following method. An ADP-Glo™ Kinase Assay kit (article number V9102) from Promega Company was used in this method. Detailed experimental operation can be referred to the instruction of the kit.
The reaction was carried out in a 384-well microplate. The test compound and the recombinant human KIF18A protein (final concentration of 100 nM, entrusted to GenScript for expression) were added into the wells and incubated at room temperature for 20 minutes, and subsequently, ATP solution (component V915A from the ADP-Glo™ Kinase Assay kit, final concentration of 60 μM) was added to the reaction solution and the obtained system was incubated at room temperature for 20 minutes. Subsequently, 5 μL of ADP-Glo Reagent was added to the reaction system and the obtained system was incubated at room temperature for 50 minutes. Then, 10 μL of Kinase Detection Reagent was added to the reaction system, and the obtained system was incubated at room temperature for 30 minutes. After the incubation was ended, a chemiluminiscence intensity value of each well was determined by a microplate reader in a Luminescence mode.

On to `CCS(=O)(=O)Nc1ccc(C(=O)Nc2cc3c(c(N4CCC(F)(F)CC4)c2)C(=O)NC3)c(N2CCC3(CC2)CC3)c1` [Example 23, N-(7-(4,4-difluoropiperidin-1-yl)-1-oxoisoindolin-5-yl)-4-(ethylsulfonamido)-2-(6-azaspiro[2.5]octan-6-yl)benzamide], for which the 50% inhibitory concentration (IC50) turned out to be 3.6 nM in test [1], 5.8 nM in test [2] and 123 nM in test [3].
On to `CCS(=O)(=O)Nc1ccc(C(=O)Nc2cc(N3CCC(F)(F)CC3)c3oc(C)nc3c2)c(N2CCC3(CC2)CC3)c1` [Example 22, N-(7-(4,4-difluoropiperidin-1-yl)-2-methylbenzo[d]oxazol-5-yl)-4-(ethylsulfonamido)-2-(6-azaspiro[2.5]octan-6-yl)benzamide], for which the values for the half-inhibitory concentration (IC50) in test [1] and in test [3] were 33.2 nM and 98.5 nM, respectively.
`O=C(Nc1cc2c(c(C3(O)CCC(F)(F)CC3)c1)OCC2)c1ccc(NS(=O)(=O)C2CC2)cc1N1CCC2(CC1)CC2` [Example 12, 4-(cyclopropanesulfonamido)-N-(7-(4,4-difluoro-1-hydroxycyclohexyl)-2,3-dihydrobenzofuran-5-yl)-2-(6-azaspiro[2.5]octan-6-yl)benzamide]: in test [3], the IC50 turned out to be 173 nM.
In the case of `O=C(Nc1cc2c(c(N3CCC(F)(F)CC3)c1)OCC2)c1ccc(NS(=O)(=O)C2CC2)cc1N1CCC2(CC1)CC2` [Example 7, 4-(cyclopropanesulfonamido)-N-(7-(4,4-difluoropyridin-1-yl)-2,3-dihydrobenzofuran-5-yl)-2-(6-azaspiro[2.5]octan-6-yl)benzamide], the IC50 in test [1] worked out at 11 nM; in test [2] it was 7.8 nM; in test [3] it was 157 nM.
For `CCS(=O)(=O)Nc1ccc(C(=O)Nc2cc3c(c(N4CCC(F)(F)CC4)c2)C(=O)N(C)C3)c(N2CCC3(CC2)CC3)c1` [Example 2, N-(7-(4,4-difluoropiperidin-1-yl)-2-methyl-1-oxoisoindolin-5-yl)-4-(ethylsulfonamido)-2-(6-azaspiro[2.5]octan-6-yl)benzamide], in that order: 4.3 nM, 3.9 nM and 142 nM.
Turning to `CCS(=O)(=O)Nc1ccc(C(=O)Nc2cc3c(c(N4CCC(F)(F)CC4)c2)OCCC3)c(N2CCC3(CC2)CC3)c1` [Example 15], the IC50 came to 18.4 nM in test [1] and 23.6 nM in test [2].
As for `CCS(=O)(=O)Nc1ccc(C(=O)Nc2cc3c(c(N4CCC(F)(F)CC4)c2)OCO3)c(N2CCC3(CC2)CC3)c1` [Example 13, N-(7-(4,4-difluoropiperidin-1-yl)benzo[d][1,3]dioxol-5-yl)-4-(ethylsulfonamido)-2-(6-azaspiro[2.5]octan-6-yl)benzamide], the figures for the IC50 in test [1], in test [2] and in test [3] were 5.5 nM, 7.3 nM and 291 nM, respectively.
Take `CCS(=O)(=O)Nc1ccc(C(=O)Nc2cc3c(c(N4CCC(F)(F)C4)c2)OCC3)c(N2CCC3(CC2)CC3)c1` [Example 5, N-(7-(3,3-difluoropyrrolidine-1-yl)-2,3-dihydrobenzofuran-5-yl)-4-(ethylsulfonamido)-2-(6-azaspiro[2.5]octan-6-yl)benzamide]: the IC50 in test [3] was 134 nM.
As for `CCS(=O)(=O)Nc1ccc(C(=O)Nc2cc3c(c(N4CCOCC4)c2)C(=O)N(C)C3)c(N2CCC3(CC2)CC3)c1` [Example 27, 4-(ethylsulfonamido)-N-(2-methyl-7-morpholino-1-oxoisoindolin-5-yl)-2-(6-azaspiro[2.5]octan-6-yl)benzamide], the IC50 in test [1] turned out to be 1.96 nM; in test [3], 109 nM.
For `CCS(=O)(=O)Nc1ccc(C(=O)Nc2cc3c(c(N4CCCCC4)c2)OCC3)c(N2CCC3(CC2)CC3)c1` [Example 3, 4-(ethylsulfonamido)-N-(7-(piperidin-1-yl)-2,3-dihydrobenzofuran-5-yl)-2-(6-azaspiro[2.5]octan-6-yl)benzamide], the figures for the IC50 in test [1], in test [2] and in test [3] were 11.2 nM, 6.6 nM and 72.5 nM, respectively.
`Cn1cc2cc(NC(=O)c3ccc(NS(=O)(=O)C4CC4)cc3N3CCC4(CC3)CC4)cc(N3CCC(F)(F)CC3)c2n1` [Example 26]: the IC50 in test [3] came to 256 nM.
For `CCS(=O)(=O)Nc1ccc(C(=O)Nc2cc3c(c(CC(C)C)c2)OCC3)c(N2CCC3(CC2)CC3)c1` [Example 10, 4-(ethylsulfonamido)-N-(7-isobutyl-2,3-dihydrobenzofuran-5-yl)-2-(6-azaspiro[2.5]octan-6-yl)benzamide], in test [3], the IC50 came to 267 nM.
Turning to `CCS(=O)(=O)Nc1ccc(C(=O)Nc2cc(N3CCC(F)(F)CC3)c3cn(C)nc3c2)c(N2CCC3(CC2)CC3)c1` [Example 17, N-(4-(4,4-difluoropiperidin-1-yl)-2-methyl-2H-indazol-6-yl)-4-(ethylsulfonamido)-2-(6-azaspiro[2.5]octan-6-yl)benzamide], the IC50 in test [1] is 6.6 nM; in test [3], 280 nM.
Take `CCS(=O)(=O)Nc1ccc(C(=O)Nc2cc3c(c(N4CCC5(CC4)CC5)c2)OCC3)c(N2CCC3(CC2)CC3)c1` [Example 4, N-(7-(6-azaspiro[2.5]octan-6-yl)-2,3-dihydrobenzofuran-5-yl)-4-(ethylsulfonamido)-2-(6-azaspiro[2.5]octan-6-yl)benzamide]: in test [3], the IC50 stood at 212 nM.
With `CCS(=O)(=O)Nc1ccc(C(=O)Nc2cc3c(c(C4CC4)c2)OCC3)c(N2CCC3(CC2)CC3)c1` [Example 8, N-(7-cyclopropyl-2,3-dihydrobenzofuran-5-yl)-4-(ethylsulfonamido)-2-(6-azaspiro[2.5]octan-6-yl)benzamide], the IC50 in test [3] was 90.6 nM.
For the compound `CCS(=O)(=O)Nc1ccc(C(=O)Nc2cc(N3CCC(F)(F)C3)c3nn(C)cc3c2)c(N2CCC3(CC2)CC3)c1` [Example 25, N-(7-(3,3-difluoropyrrolidin-1-yl)-2-methyl-2H-indazol-5-yl)-4-(ethylsulfonamido)-2-(6-azaspiro[2.5]octan-6-yl)benzamide], the IC50 in test [1] is 33.6 nM; in test [3], 198 nM.
For `CCS(=O)(=O)Nc1ccc(C(=O)Nc2cc(N3CCC(F)(F)CC3)c3cn[nH]c3c2)c(N2CCC3(CC2)CC3)c1` [Example 20, N-(4-(4,4-difluoropiperidin-1-yl)-1H-indazol-6-yl)-4-(ethylsulfonamido)-2-(6-azaspiro[2.5]octan-6-yl)benzamide], in that order: 20.3 nM and 197 nM.
As for `CCS(=O)(=O)Nc1ccc(C(=O)Nc2cc3c(c(C4(O)CCC(F)(F)CC4)c2)OCC3)c(N2CCC3(CC2)CC3)c1` [Example 11, N-(7-(4,4-difluoro-1-hydroxycyclohexyl)-2,3-dihydrobenzofuran-5-yl)-4-(ethylsulfonamido)-2-(6-azaspiro[2.5]octan-6-yl)benzamide], the IC50 in test [3] was 263 nM.
